Results from publication PMC3557594 (Biochimie, 2012).
Read-outs that look alike come from different tables or passages of the source.

Assays:
[1] = biological target: T1, Neisseria meningitides alanine aminopeptidase (NmAPN) (Neisseria meningitidis, UniProt Q9JYV4); assay type: biochemical; conditions: substrate 3 μM, enzyme 1.37 nM, pH 7.5
T1 sequence (Q9JYV4 1-867): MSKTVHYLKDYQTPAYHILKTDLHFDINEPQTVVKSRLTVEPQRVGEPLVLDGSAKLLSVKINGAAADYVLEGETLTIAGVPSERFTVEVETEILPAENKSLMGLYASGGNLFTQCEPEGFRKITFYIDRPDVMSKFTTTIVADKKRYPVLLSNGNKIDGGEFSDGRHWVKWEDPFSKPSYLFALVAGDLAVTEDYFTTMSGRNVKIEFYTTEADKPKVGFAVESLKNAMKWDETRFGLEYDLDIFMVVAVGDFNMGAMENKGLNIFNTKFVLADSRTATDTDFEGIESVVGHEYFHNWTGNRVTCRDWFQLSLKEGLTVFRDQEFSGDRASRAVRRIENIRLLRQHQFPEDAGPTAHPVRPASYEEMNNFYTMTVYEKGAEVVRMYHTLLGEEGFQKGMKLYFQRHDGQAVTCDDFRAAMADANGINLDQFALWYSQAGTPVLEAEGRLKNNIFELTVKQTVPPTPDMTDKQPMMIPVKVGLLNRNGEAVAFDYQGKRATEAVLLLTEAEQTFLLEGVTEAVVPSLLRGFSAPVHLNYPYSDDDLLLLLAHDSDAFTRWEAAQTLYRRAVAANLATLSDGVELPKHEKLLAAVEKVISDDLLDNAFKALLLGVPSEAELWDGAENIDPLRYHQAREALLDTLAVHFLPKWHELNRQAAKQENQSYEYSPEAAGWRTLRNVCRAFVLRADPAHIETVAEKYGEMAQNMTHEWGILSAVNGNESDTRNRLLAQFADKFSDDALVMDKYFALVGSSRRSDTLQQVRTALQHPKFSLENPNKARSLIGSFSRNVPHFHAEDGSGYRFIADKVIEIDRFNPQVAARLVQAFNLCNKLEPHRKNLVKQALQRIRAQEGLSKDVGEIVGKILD

[2] = biological target: NmAPN (Neisseria meningitidis, UniProt Q9JYV4); test: biochemical; assay type: biochemical, Neisseria meningitides; conditions: for mode of inhibition: Lineweaver-Burk plot
[3] = biological target: T1, Neisseria meningitides alanine aminopeptidase (NmAPN); test: Kinetic parameters determination; assay type: biochemical; conditions: ACC substrate, 50 mM Tris-HCl pH 7.5, 37 °C, enzyme 1.13 nM
[4] = biological target: porcine kidney APN; conditions: cited from earlier work
[5] = biological target: PfAPN; conditions: Plasmodium falciparum APN; cited from earlier work

Compound: N[C@@H](Cc1ccc(OCC(=O)O)cc1)C(=O)O [4(1-carboxymethoxy)-L-Phe]
- hydrolysis of ACC substrate by NmAPN (in words) [1]: not hydrolyzed

Compound: N=C(N)NCCCC(N)P(=O)(O)O (stereo not shown) [Compound 1]
- IC50 [2]: 1910 ± 180 nM
- Ki [2]: 1460 ± 140 nM

Compound: NC(CCc1ccccc1)P(=O)(O)O (stereo not shown) [Compound 2]
- IC50 [2]: 1660 ± 70 nM

Compound: NC(CCc1ccccc1)[PH](=O)O (stereo not shown) [Compound 3]
- IC50 [2]: 1910 ± 50 nM

Compound: NC(=O)Cc1cc(=O)oc2cc(NC(=O)[C@@H](N)Cc3ccc(Br)cc3)ccc12 [Compound 4-Br-L-Phe]
- Km [3]: > 250 µM

Compound: NC(CCc1ccccc1)P(=O)(O)CC(Cc1ccccc1)C(=O)O (stereo not shown) [Compound 4]
- IC50 [2]: 397 ± 24 nM
- Ki [2]: 302 ± 18 nM
- mode of inhibition [2]: reversible, competitive and tight-binding inhibitors
- Ki [4]: 276 nM

Compound: NC(CCc1ccccc1)P(=O)(O)CC(Cc1ccc(O)cc1)C(=O)O (stereo not shown) [Compound 5]
- IC50 [2]: 70 ± 7 nM
- mode of inhibition [2]: reversible, competitive and tight-binding inhibitors
- Ki [5]: 232 nM
- Ki [4]: 36 nM

Compound: NC(CCc1ccccc1)P(=O)(O)CNC(Cc1ccc(O)cc1)C(=O)O (stereo not shown) [Compound 6]
- IC50 ([2]; L-Arg-ACC 20 μM, enzyme 0.85 nM, 30 min preincubation, 37 °C): 3290 ± 150 nM
- Ki ([2]; calculated from IC50 by Cheng-Prusoff equation, L-Arg-ACC 20 μM): 2510 ± 110 nM

Compound: NCC(=O)Nc1ccc2c(CC(N)=O)cc(=O)oc2c1 [Gly]
- Km [3]: > 250 µM

Compound: CC[C@H](N)C(=O)Nc1ccc2c(CC(N)=O)cc(=O)oc2c1 [L-Abu]
- rate of hydrolysis, proportional to kcat/Km, as percentage of the best substrate cleavage (L-hArg-ACC, 100%) [1]: 20–40%

Compound: N=C(NCCC[C@H](N)C(=O)Nc1ccc2c(CC(N)=O)cc(=O)oc2c1)N[N+](=O)[O-] [L-Arg(NO2)]
- rate of hydrolysis, proportional to kcat/Km, as percentage of the best substrate cleavage (L-hArg-ACC, 100%) [1]: 38.5–74.0%

Compound: NC(=O)CC[C@H](N)C(=O)Nc1ccc2c(CC(N)=O)cc(=O)oc2c1 [L-Gln]
- Km [3]: > 250 µM

Compound: NC(=O)Cc1cc(=O)oc2cc(NC(=O)[C@@H](N)CCC(=O)OCc3ccccc3)ccc12 [L-Glu(Bzl)]
- rate of hydrolysis, proportional to kcat/Km, as percentage of the best substrate cleavage (L-hArg-ACC, 100%) [1]: 38.5–74.0%

Compound: NCCC(=O)O [β-Ala]
- hydrolysis of ACC substrate by NmAPN (in words) [1]: not hydrolyzed
